The text below walks through data of patent publication US20180184661A1, “Improved Herbicidal Composition, Method and Use” (Arysta LifeScience Benelux Sprl, priority 2015, published 2018).

Structures are written as SMILES.

What all share (assay): Pre-emergence field trial in citrus, residual broadleaf weed control
What all share (type): in vivo

Test [1] concerns black nightshade (Solanum nigrum, SOLNI). The settings on record: trial SRES14 059 230 HE, Spain, diuron 900 and/or oxyfluorfen 90 g a.i./ha, rated 15 to 90 days after application. As to the method: (§1) Field trials were conducted in citrus crops using standard herbicide small plot research methodology. Plots varied from 12 square meters (m^2) to 30 m^2 (2×15) with 3 to 4 replicates per treatment. The citrus crops were grown using normal cultural practices for the respective areas for the trials, using normal planting, fertilization, watering, flooding and maintenance for pests to ensure good growth of the crop and the weeds.
(§2) All treatments in the field trials were applied with a knapsack sprayer using compressed air as propellant. The sprayer was equipped with a boom and flat fan nozzles, and calibrated to apply homogeneously a spray volume of 200 to 400 litres/hectare at constant pressure.
(§3) Diuron in combination with oxyfluorfen, in the form of a ready for use formulation, was compared to a diuron formulation and an oxyfluorfen formulation, at dose rates of respectively […]., 900 g a.i./ha and 90 g a.i./ha.
(§4) Treatments were rated at different intervals from treatment to evaluation, from 15 to 120 days after application as compared to the untreated control plants. Assessment were done recording the percentage of ground covered by weeds and the visual efficacy on a scale of 0 to 100 percent where 0 corresponds to no weed control and 100 corresponds to complete weed control.
(§5) Trials were conducted under field conditions in Spain. Trial sites were located in commercially grown European citrus crop. The citrus trees were grown using normal cultural practices for fertilization, seeding and maintenance to ensure good growth of the crop and the weeds. The trials were conducted using normal research methodology. Plots varied from 12 square meters (m^2) to 30 m^2 (2×15) with 3 to 4 replicates per treatment. All treatment results are an average of 3 to 4 replicates. The trials had naturally occurring populations of weeds. The weed spectrum included, but was not limited to black nightshade (Solanum nigrum; SOLNI), Sow thistle (Sonchus tenerrimus, SONTE), fleabane (Conyza bonariensis, ERIBO), DIPER, hairy fleabane (Conyza bonariensis, ERIBO), redroot pigweed (Amaranthus retroflexus, AMA).
(§6) Treatments consisted applications of diuron+oxyfluorfen, diuron solo or oxyfluorfen solo. […] Colby's equation was used to determine the herbicidal effects expected from the mixtures (Colby, S. R. Calculation of the synergistic and antagonistic response of herbicide combinations. Weeds 1967, 15, 20-22.). The following equation was used to calculate the expected activity of mixtures containing two active ingredients, A and B:
(§7) A=observed efficacy of active ingredient A at the s e concentration as used in the mixture. B=observed efficacy of active ingredient B at the s e concentration as used in the mixture.
(§8) Ob=Observed visual weed control, Ex=Expected weed control as defined by Colby Equation

In test [2] the test system is fleabane (Conyza bonariensis, ERIBO). The settings on record: Spain, diuron 900 and/or oxyfluorfen 90 g a.i./ha, rated 15 to 90 days after application. The protocol: as §1, §2, §3, §4, §5, §6, §7, §8
In test [3] the test system is Sow thistle (Sonchus tenerrimus, SONTE). The settings on record: Spain, diuron 900 and/or oxyfluorfen 90 g a.i./ha, rated 15 to 90 days after application. As to the method: as §1, §2, §3, §4, §5, §6, §7, §8
The subject of test [4] is Wall-rocket (Diplotaxis erucoides, DIPER). As to conditions: trial SRES14 061 230 HE, Spain, diuron 900 and/or oxyfluorfen 90 g a.i./ha, rated 15 to 90 days after application. As to the method:
as §1, §2, §3, §4, §5, §6, §7, §8

Test [5] concerns pigweed, redroot (Amaranthus retroflexus, AMARE). The settings on record: trial SRES14 061 230 HE, Spain, diuron 900 and/or oxyfluorfen 90 g a.i./ha, rated 15 to 90 days after application. As to the method: as §1, §2, §3, §4, §5, §6, §7, §8

For `CCOc1cc(Oc2ccc(C(F)(F)F)cc2Cl)ccc1[N+](=O)[O-]` [Oxyfluorfen, 2-chloro-1-(3-ethoxy-4-nitrophenoxy)-4-(trifluoromethyl)benzene], the “% Control SOLNI Obs” value in test [1] is on record as 47.5%. Besides, the “% Control ERIBO Obs” value in test [2] (trial SRES14 059 230 HE) worked out at 35%; in test [2] (trial SRES14 060 230 HE) it was 47.5%; in test [2] (trial SRES14 061 230 HE), 43.8%. In addition, the “% Control SONTE Obs” value in test [3] (trial SRES14 059 230 HE) is 28.8%; in test [3] (trial SRES14 060 230 HE), 10%. Besides, the “% Control DIPER Obs” value in test [4] turned out to be 20%. Moreover, the “% Control AMARE Obs” value in test [5] was found to be 45%.

Regarding `CN(C)C(=O)Nc1ccc(Cl)c(Cl)c1` [Diuron, N′-(3,4-dichlorophenyl)-N,N-dimethylurea], in test [1], the “% Control SOLNI Obs” value turned out to be 55%. For the same compound, the figures for the “% Control ERIBO Obs” value in test [2] (trial SRES14 059 230 HE), in test [2] (trial SRES14 060 230 HE) and in test [2] (trial SRES14 061 230 HE) were 62.5%, 46.3% and 28.8%, respectively. For the same compound, the “% Control SONTE Obs” value in test [3] (trial SRES14 059 230 HE) amounted to 57.5%; in test [3] (trial SRES14 060 230 HE), 45%. For the same compound, the “% Control DIPER Obs” value in test [4] turned out to be 88.8%. Further, in test [5], the “% Control AMARE Obs” value is reported as 53.8%.
